Converted amounts (≈) assume the structure as drawn.
Tests used:
[1] = tested on: Streptococcus sp.; assay: in vitro antibacterial evaluation, MIC by broth dilution; format: cell-based; conditions: broth dilution, 18 hours at 35° C.
In short: (§1)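 Step 1: dilute antibiotic across 64-0.06 μg/mL in Muller-Hinton II […]. Step 2: inoculate at 5×10^5 CFU/mL.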

[2] = tested on: Enterococcus sp.; assay: as above; format: cell-based; conditions: broth dilution, 18 hours at 35° C.
In short: as §1

[3] = tested on: Staphylococcus sp.; assay: as above; format: cell-based; conditions: broth dilution, 18 hours at 35° C.
In short: as §1

[4] = anatomic pathology (histopathology of heart and kidney) in mice; format: in vivo; conditions: CD-1 mice, 20 mg/kg intravenously daily for 9 days, necropsy day 10, microscopic histopathology
Method: Samples of tissues from necropsied mice were formalin-fixed, paraffin-embedded, sectioned, stained with hematoxylin and eosin, and examined microscopically. Histopathologic findings were recorded. These findings were subjectively graded on a scale corresponding to slight, mild, moderate, marked and severe as compared to untreated controls.

[5] = tested on: Escherichia coli; assay: in vitro antibacterial evaluation, MIC by broth dilution; format: cell-based; conditions: 18 hours at 35° C.
[6] = tested on: Staphylococcus aureus-SMITH (GC 4543); assay: acute lethal infection in mice; format: in vivo; conditions: acute lethal infection, female CD-1 mice, intraperitoneal challenge, intravenous 30 min. after infection, 7 day survival
In short: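 Intraperitoneal challenge of female CD-1 mice with a bacterial dose lethal to untreated animals within 24-48 hr; single iv treatment 30 min later, 5 mice per dose level. Survival is scored at day 7 and pooled from three experiments to give the median effective dose.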

N=C1NCC(C(O)C2NC(=O)C(Cc3ccc(OC4OC(CO)C(OC5OC6COC7(OC6C(O)C5O)C5CC6CC(C5)CC7C6)C(O)C4O)cc3)NC(=O)C(Cc3ccccc3)NC(=O)CNC(=O)C(CO)NC(=O)C(C(O)C3CNC(=N)N3C3OC(CO)C(O)C(O)C3O)NC2=O)N1 (stereo not drawn) [Example 220]
MIC Streptococcus agalactiae (GC 4564) [1]: <0.06 µg/mL
MIC Streptococcus pneumoniae (ATCC 6301) [1]: <0.06 µg/mL
MIC Streptococcus pneumoniae (GC 1894) [1]: <0.06 µg/mL
MIC Streptococcus pneumoniae (GC 4565) [1]: <0.06 µg/mL
MIC Streptococcus pyogenes (GC 4563) [1]: <0.06 µg/mL
MIC Streptococcus pneumoniae (ATCC 6301) ([1]; inoculum 5×10^5 CFU/mL, strain ATCC 6301): <0.06 µg/mL
MIC Streptococcus pneumoniae (GC 1894) ([1]; inoculum 5×10^5 CFU/mL, strain GC 1894): <0.06 µg/mL
MIC Streptococcus pyogenes (GC 4563) ([1]; inoculum 5×10^5 CFU/mL, strain GC 4563): <0.06 µg/mL
MIC Streptococcus agalactiae (GC 4564) ([1]; inoculum 5×10^5 CFU/mL, strain GC 4564): <0.06 µg/mL
MIC Streptococcus pneumoniae (GC 4565) ([1]; inoculum 5×10^5 CFU/mL, strain GC 4565): <0.06 µg/mL
MIC Enterococcus avium (GC 4558) [2]: 2 µg/mL (≈ 1.41 µM)
MIC Enterococcus faecalis (ATCC 29212) [2]: 2 µg/mL (≈ 1.41 µM)
MIC Enterococcus faecalis (GC 2242) [2]: 1 µg/mL (≈ 0.707 µM)
MIC Enterococcus faecalis (GC 2691) [2]: 2 µg/mL (≈ 1.41 µM)
MIC Enterococcus faecalis (GC 3059) [2]: 2 µg/mL (≈ 1.41 µM)
MIC Enterococcus faecalis (GC 4552) [2]: 2 µg/mL (≈ 1.41 µM)
MIC Enterococcus faecalis (GC 4553) [2]: 1 µg/mL (≈ 0.707 µM)
MIC Enterococcus faecalis (GC 4554) [2]: 2 µg/mL (≈ 1.41 µM)
MIC Enterococcus faecalis (GC 6189) [2]: 1 µg/mL (≈ 0.707 µM)
MIC Enterococcus faecium (GC 2243) [2]: 1 µg/mL (≈ 0.707 µM)
MIC Enterococcus faecium (GC 4556) [2]: 1 µg/mL (≈ 0.707 µM)
MIC Enterococcus faecium (GC 4557) [2]: 1 µg/mL (≈ 0.707 µM)
MIC Enterococcus faecalis (ATCC 29212) ([2]; inoculum 5×10^5 CFU/mL, strain ATCC 29212): 2 µg/mL (≈ 1.41 µM)
MIC Enterococcus faecalis (GC 2242) ([2]; inoculum 5×10^5 CFU/mL, strain GC 2242): 1 µg/mL (≈ 0.707 µM)
MIC Enterococcus faecium (GC 2243) ([2]; inoculum 5×10^5 CFU/mL, strain GC 2243): 1 µg/mL (≈ 0.707 µM)
MIC Enterococcus faecalis (GC 2691) ([2]; inoculum 5×10^5 CFU/mL, strain GC 2691): 2 µg/mL (≈ 1.41 µM)
MIC Enterococcus faecalis (GC 3059) ([2]; inoculum 5×10^5 CFU/mL, strain GC 3059): 2 µg/mL (≈ 1.41 µM)
MIC Enterococcus faecalis (GC 4552) ([2]; inoculum 5×10^5 CFU/mL, strain GC 4552): 2 µg/mL (≈ 1.41 µM)
MIC Enterococcus faecalis (GC 4553) ([2]; inoculum 5×10^5 CFU/mL, strain GC 4553): 1 µg/mL (≈ 0.707 µM)
MIC Enterococcus faecalis (GC 4554) ([2]; inoculum 5×10^5 CFU/mL, strain GC 4554): 2 µg/mL (≈ 1.41 µM)
MIC Enterococcus faecium (GC 4556) ([2]; inoculum 5×10^5 CFU/mL, strain GC 4556): 1 µg/mL (≈ 0.707 µM)
MIC Enterococcus faecium (GC 4557) ([2]; inoculum 5×10^5 CFU/mL, strain GC 4557): 1 µg/mL (≈ 0.707 µM)
MIC Enterococcus avium (GC 4558) ([2]; inoculum 5×10^5 CFU/mL, strain GC 4558): 2 µg/mL (≈ 1.41 µM)
MIC Enterococcus faecalis (GC 6189) ([2]; inoculum 5×10^5 CFU/mL, strain GC 6189): 1 µg/mL (≈ 0.707 µM)
MIC Staphylococcus aureus (ATCC 29213) ([3]; strain ATCC 29213): 0.5 µg/mL (≈ 0.354 µM)
MIC Staphylococcus aureus (GC 1131) ([3]; strain GC 1131): 1 µg/mL (≈ 0.707 µM)
MIC Staphylococcus aureus (GC 3051) ([3]; strain GC 3051): 1 µg/mL (≈ 0.707 µM)
MIC Staphylococcus aureus (GC 3053) ([3]; strain GC 3053): 1 µg/mL (≈ 0.707 µM)
MIC Staphylococcus aureus (GC 4541) ([3]; strain GC 4541): 1 µg/mL (≈ 0.707 µM)
MIC Staphylococcus aureus (GC 4542) ([3]; strain GC 4542): 0.5 µg/mL (≈ 0.354 µM)
MIC Staphylococcus aureus-SMITH (GC 4543) ([3]; strain GC 4543): 1 µg/mL (≈ 0.707 µM)
MIC Staphylococcus aureus (GC 4544) ([3]; strain GC 4544): 1 µg/mL (≈ 0.707 µM)
MIC Staphylococcus aureus (GC 4545) ([3]; strain GC 4545): 0.5 µg/mL (≈ 0.354 µM)
MIC Staphylococcus haemolyticus (GC 4546) ([3]; strain GC 4546): 0.25 µg/mL (≈ 0.177 µM)
MIC Coagulase Negative Staphylococcus (GC 4547) ([3]; strain GC 4547): 0.5 µg/mL (≈ 0.354 µM)
MIC Coagulase Negative Staphylococcus (GC 4548) ([3]; strain GC 4548): 0.25 µg/mL (≈ 0.177 µM)
MIC Coagulase Negative Staphylococcus (GC 4549) ([3]; strain GC 4549): 0.25 µg/mL (≈ 0.177 µM)
MIC Coagulase Negative Staphylococcus (GC 4551) ([3]; strain GC 4551): 0.5 µg/mL (≈ 0.354 µM)
Anatomical Pathology (Day 10), Heart [4]: 0
Anatomical Pathology (Day 10), Kidney [4]: +++
MIC Escherichia coli (ATCC 25922) [5]: 32 µg/mL (≈ 22.6 µM)
MIC Escherichia coli (GC 4559) [5]: 16 µg/mL (≈ 11.3 µM)
MIC Escherichia coli (GC 4560) [5]: 0.5 µg/mL (≈ 0.354 µM)
median effective dose (ED50), Staphylococcus aureus-SMITH (GC 4543) [6]: 0.19 mg/kg

— patent publication US6914045B2, “Glycopeptide antibiotics” (Wyeth Holdings Corporation, priority 2001, dated 2005)
